In paper PMC12586182 (Frontiers in Oncology, 2025):

How the values were obtained:
Assay in all cases: Kinase panel profiling at 1 µmol/L (mobility shift assay, Carna)
Type in all cases: biochemical
Conditions in all cases: 1 µmol/L of BTK inhibitor
NEK2 = biological target: T1, NEK2 (Homo sapiens, UniProt P51955)
T1 construct: purchased Carna Biosciences
T1 sequence (P51955 1-445): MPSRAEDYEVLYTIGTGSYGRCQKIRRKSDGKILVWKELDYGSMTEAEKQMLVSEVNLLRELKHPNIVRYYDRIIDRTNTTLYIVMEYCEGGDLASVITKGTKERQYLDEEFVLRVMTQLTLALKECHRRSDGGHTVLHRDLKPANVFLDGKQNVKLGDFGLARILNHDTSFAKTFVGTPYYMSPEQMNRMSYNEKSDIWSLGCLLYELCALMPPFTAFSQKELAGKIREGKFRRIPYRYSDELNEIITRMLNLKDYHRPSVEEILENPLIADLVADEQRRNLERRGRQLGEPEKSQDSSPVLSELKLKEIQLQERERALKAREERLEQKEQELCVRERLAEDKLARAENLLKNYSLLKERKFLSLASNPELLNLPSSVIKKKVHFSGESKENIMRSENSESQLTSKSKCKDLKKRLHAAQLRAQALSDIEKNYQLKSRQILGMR

EPHA5 = biological target: T2, EPHA5 (Homo sapiens, UniProt P54756)
T2 construct: purchased Carna Biosciences

SPHK2 = biological target: T3, SPHK2 (Homo sapiens, UniProt Q9NRA0)
T3 construct: purchased Carna Biosciences
T3 sequence (Q9NRA0 1-654): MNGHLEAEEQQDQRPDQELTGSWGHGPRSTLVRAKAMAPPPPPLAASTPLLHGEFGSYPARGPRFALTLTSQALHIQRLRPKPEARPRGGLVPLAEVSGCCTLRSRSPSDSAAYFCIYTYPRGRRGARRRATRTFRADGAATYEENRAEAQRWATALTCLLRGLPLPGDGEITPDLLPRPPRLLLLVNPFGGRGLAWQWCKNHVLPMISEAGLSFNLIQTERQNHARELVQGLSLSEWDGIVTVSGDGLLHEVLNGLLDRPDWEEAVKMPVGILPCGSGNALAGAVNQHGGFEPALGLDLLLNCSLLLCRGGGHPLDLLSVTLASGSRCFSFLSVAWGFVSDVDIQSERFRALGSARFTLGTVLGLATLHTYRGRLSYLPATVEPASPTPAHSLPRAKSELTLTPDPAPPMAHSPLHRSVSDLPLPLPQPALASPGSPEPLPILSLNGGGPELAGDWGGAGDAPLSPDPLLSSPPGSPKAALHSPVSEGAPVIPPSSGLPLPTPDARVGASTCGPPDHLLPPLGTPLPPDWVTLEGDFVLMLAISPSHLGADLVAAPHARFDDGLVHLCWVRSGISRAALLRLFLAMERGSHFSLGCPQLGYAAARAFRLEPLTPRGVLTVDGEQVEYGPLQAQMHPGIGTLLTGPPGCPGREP

PKCβ2 = biological target: T4, PKCβ2 (Homo sapiens, UniProt P05771)
T4 construct: purchased Carna Biosciences

DCAMKL2 = biological target: T5, DCAMKL2 (Homo sapiens, UniProt Q8N568)
T5 construct: purchased Carna Biosciences
T5 sequence (Q8N568 1-766): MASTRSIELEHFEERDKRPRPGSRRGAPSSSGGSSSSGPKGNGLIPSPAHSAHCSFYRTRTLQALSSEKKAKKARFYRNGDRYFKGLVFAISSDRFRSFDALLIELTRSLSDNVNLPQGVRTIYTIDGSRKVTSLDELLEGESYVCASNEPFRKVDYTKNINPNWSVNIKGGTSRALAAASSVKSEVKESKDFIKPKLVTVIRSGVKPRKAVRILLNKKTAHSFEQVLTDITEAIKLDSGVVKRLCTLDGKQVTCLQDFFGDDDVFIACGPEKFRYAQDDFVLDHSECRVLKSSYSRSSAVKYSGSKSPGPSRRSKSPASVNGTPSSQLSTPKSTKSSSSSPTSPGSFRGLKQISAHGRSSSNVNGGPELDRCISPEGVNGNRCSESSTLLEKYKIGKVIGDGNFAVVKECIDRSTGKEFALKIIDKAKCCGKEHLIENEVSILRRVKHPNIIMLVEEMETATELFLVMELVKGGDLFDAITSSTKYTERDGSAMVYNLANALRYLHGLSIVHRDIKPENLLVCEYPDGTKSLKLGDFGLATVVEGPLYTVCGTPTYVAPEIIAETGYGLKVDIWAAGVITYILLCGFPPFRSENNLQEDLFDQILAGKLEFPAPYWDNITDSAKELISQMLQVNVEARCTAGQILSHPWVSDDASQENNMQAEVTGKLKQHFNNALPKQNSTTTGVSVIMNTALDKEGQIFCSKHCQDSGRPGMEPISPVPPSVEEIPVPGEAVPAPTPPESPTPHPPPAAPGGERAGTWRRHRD

IGF1R = biological target: T6, IGF1R (Homo sapiens, UniProt P08069)
T6 construct: purchased Carna Biosciences

PKCθ = biological target: T7, PKCθ (Homo sapiens, UniProt Q04759)
T7 construct: purchased Carna Biosciences

FER = biological target: T8, FER (Homo sapiens, UniProt P16591)
T8 construct: purchased Carna Biosciences

CaMK4 = biological target: T9, CaMK4 (Homo sapiens, UniProt Q16566)
T9 construct: purchased Carna Biosciences
T9 sequence (Q16566 1-473): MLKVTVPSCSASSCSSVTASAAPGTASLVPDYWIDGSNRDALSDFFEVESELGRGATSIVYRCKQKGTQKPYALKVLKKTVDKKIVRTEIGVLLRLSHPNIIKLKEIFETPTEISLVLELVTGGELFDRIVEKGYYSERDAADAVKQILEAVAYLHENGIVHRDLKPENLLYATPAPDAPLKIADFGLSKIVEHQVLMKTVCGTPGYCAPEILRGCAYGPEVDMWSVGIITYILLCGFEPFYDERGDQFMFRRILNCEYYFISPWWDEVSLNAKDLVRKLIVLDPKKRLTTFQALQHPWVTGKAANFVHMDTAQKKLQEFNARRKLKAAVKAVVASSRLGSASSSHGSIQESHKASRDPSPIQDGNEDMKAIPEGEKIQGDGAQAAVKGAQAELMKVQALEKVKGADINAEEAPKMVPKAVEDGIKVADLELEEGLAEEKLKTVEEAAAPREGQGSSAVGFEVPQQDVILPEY

CRIK = biological target: T10, CRIK (Homo sapiens, UniProt O14578)
T10 construct: purchased Carna Biosciences

SRM = biological target: T11, SRM (Homo sapiens, UniProt Q9H3Y6)
T11 construct: purchased Carna Biosciences
T11 sequence (Q9H3Y6 whole entry): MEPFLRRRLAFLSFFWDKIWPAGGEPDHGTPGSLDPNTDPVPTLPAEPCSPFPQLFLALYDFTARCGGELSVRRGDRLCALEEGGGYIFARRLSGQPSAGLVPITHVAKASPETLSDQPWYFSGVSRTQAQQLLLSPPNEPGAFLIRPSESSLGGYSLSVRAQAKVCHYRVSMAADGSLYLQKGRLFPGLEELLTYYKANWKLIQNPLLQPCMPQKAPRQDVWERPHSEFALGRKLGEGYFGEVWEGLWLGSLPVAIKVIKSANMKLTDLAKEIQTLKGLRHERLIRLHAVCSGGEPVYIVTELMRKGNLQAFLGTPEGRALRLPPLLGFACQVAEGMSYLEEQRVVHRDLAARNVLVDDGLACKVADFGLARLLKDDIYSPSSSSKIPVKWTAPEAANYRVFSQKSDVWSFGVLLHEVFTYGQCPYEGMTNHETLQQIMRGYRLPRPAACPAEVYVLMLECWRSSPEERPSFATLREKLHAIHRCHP

T8 sequence (P16591 whole entry): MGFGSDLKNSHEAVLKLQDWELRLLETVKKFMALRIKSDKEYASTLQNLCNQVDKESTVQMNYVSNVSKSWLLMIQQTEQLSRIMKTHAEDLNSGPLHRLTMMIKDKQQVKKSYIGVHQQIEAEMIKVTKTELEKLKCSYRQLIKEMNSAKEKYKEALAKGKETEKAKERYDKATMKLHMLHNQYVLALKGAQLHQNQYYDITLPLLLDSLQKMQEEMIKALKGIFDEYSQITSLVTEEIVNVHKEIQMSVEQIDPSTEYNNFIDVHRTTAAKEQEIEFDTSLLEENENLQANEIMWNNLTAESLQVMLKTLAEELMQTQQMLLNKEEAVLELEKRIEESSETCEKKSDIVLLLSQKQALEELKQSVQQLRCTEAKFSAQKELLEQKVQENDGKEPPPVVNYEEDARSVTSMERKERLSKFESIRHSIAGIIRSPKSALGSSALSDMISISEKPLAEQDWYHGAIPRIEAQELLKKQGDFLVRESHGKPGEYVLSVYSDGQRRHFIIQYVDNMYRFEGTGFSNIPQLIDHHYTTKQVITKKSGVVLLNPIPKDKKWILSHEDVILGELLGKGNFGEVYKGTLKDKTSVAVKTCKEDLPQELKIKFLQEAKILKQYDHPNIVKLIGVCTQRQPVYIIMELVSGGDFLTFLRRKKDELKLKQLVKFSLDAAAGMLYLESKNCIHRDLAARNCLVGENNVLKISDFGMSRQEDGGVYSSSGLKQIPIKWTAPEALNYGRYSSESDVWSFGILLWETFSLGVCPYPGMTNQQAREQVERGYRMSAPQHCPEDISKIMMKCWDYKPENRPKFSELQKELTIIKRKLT
T4 sequence (P05771 1-673 isoform P05771-2): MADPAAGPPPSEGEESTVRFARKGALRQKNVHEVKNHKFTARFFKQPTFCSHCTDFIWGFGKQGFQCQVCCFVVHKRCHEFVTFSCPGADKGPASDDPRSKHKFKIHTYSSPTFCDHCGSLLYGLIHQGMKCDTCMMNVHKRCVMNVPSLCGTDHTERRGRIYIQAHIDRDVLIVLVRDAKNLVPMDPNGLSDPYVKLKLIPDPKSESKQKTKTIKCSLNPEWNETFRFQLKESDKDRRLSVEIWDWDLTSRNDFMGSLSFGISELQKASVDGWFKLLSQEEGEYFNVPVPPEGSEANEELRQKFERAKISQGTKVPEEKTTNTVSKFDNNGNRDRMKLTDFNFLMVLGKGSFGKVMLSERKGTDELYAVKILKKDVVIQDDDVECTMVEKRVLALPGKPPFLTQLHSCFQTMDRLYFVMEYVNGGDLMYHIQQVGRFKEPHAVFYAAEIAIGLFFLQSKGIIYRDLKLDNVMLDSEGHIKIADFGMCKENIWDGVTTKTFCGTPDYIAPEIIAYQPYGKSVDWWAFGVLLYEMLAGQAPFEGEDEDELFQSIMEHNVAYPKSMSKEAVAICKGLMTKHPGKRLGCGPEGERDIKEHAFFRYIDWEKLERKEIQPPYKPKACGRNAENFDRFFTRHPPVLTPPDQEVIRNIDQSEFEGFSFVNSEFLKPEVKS
T10 sequence (O14578 whole entry): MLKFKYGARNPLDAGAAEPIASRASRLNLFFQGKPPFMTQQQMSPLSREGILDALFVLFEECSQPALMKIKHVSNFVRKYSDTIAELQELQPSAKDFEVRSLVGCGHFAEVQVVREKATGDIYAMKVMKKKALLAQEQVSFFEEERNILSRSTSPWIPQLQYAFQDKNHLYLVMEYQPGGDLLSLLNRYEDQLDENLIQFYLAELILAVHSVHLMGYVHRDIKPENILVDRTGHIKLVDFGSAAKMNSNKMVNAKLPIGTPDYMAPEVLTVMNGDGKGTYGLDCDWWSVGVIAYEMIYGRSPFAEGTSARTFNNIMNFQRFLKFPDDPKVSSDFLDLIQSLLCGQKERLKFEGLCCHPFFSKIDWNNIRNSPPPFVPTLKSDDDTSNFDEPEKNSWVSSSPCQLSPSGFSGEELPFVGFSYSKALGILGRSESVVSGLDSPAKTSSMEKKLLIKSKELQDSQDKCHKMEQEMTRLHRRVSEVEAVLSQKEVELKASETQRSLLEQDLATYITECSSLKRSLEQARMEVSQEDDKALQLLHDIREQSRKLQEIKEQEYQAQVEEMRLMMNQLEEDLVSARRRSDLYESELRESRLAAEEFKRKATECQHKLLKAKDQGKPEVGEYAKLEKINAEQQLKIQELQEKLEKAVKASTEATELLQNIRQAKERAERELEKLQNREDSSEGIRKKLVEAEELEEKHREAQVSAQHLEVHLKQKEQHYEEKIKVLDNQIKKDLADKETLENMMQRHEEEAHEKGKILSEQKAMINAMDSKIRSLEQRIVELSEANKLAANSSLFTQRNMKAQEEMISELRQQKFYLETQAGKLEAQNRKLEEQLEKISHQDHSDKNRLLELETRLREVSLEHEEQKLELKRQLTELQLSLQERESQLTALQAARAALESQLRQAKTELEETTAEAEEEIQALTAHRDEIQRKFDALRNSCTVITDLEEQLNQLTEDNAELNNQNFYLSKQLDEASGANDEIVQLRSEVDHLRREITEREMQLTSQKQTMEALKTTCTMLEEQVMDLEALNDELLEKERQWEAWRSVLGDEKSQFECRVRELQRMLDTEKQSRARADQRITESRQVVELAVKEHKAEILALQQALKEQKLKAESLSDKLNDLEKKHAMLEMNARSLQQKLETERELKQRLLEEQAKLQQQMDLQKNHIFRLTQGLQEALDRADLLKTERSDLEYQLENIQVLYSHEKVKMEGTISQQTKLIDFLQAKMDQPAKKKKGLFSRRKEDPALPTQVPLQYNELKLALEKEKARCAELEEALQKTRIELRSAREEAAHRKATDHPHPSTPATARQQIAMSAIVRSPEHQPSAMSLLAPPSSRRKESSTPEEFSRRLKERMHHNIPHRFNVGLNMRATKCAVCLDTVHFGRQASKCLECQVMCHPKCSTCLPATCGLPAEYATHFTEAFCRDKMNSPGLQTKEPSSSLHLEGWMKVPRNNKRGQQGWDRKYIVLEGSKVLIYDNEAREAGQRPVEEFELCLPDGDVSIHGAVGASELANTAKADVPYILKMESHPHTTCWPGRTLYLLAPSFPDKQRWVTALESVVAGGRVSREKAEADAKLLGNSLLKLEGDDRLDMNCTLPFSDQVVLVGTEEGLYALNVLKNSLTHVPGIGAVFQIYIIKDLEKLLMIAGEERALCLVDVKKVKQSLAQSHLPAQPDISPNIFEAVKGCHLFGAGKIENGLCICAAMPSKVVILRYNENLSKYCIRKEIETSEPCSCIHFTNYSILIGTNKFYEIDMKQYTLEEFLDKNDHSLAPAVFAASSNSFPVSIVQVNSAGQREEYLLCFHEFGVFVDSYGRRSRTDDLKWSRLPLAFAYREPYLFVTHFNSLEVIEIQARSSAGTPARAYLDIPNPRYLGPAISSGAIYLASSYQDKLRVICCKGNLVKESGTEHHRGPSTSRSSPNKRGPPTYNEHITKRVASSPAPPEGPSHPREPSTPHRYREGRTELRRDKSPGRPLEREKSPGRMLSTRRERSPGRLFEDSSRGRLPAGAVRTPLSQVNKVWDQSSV
T7 sequence (Q04759 whole entry): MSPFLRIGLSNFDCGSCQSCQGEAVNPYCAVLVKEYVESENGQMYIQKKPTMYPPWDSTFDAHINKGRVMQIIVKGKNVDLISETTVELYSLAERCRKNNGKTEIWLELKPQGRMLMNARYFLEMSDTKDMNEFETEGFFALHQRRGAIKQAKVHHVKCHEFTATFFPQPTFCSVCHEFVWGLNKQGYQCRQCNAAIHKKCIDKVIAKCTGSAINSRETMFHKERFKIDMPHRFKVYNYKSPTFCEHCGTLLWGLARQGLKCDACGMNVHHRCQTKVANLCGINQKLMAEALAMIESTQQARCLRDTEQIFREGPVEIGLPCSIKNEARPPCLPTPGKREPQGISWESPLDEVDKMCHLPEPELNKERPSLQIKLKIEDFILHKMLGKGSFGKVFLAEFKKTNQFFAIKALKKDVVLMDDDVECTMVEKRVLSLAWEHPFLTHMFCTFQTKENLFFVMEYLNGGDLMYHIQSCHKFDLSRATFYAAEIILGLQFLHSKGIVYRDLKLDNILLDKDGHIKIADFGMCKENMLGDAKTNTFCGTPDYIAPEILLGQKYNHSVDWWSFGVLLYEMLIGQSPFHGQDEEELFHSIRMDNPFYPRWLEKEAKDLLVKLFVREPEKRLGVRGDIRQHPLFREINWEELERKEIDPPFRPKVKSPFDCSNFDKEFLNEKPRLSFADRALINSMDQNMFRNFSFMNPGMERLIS

Structure (SMILES) | Percentage inhibition of kinase enzyme activity (NEK2) [%] | Percentage inhibition of kinase enzyme activity (EPHA5) [%] | Percentage inhibition of kinase enzyme activity (SPHK2) [%] | Percentage inhibition of kinase enzyme activity (PKCβ2) [%] | Percentage inhibition of kinase enzyme activity (DCAMKL2) [%] | Percentage inhibition of kinase enzyme activity (IGF1R) [%] | Percentage inhibition of kinase enzyme activity (PKCθ) [%] | Percentage inhibition of kinase enzyme activity (FER) [%] | Percentage inhibition of kinase enzyme activity (CaMK4) [%] | Percentage inhibition of kinase enzyme activity (CRIK) [%] | Percentage inhibition of kinase enzyme activity (SRM) [%]
O=C(c1ccc(Oc2ccccc2)cc1Cl)c1c[nH]c2ncnc(N[C@@H]3CC[C@@H](CO)OC3)c12 [nemtabrutinib] | 74.64 | 100.38 | 1.97 | -1.79 | -1.82 | 99.20 | -0.21 | 96.49 | 5.83 | -5.26 | 102.16
CC#CC(=O)N1CCC[C@H]1c1nc(-c2ccc(C(=O)Nc3ccccn3)cc2)c2c(N)nccn12 [acalabrutinib] | -6.35 | -1.17 | 6.90 | -12.04 | 4.63 | 0.47 | -8.13 | -2.54 | -8.42 | -5.14 | 39.49
COc1ccc(F)cc1C(=O)NCc1ccc(-c2nn([C@@H](C)C(F)(F)F)c(N)c2C(N)=O)cc1 [pirtobrutinib] | 2.00 | 0.45 | -12.42 | -8.67 | 0.08 | 0.28 | 4.94 | 7.19 | -9.89 | -3.77 | 18.61
C=CC(=O)N1CCC([C@@H]2CCNc3c(C(N)=O)c(-c4ccc(Oc5ccccc5)cc4)nn32)CC1 [zanubrutinib] |  | 13.96 |  | -1.66 |  | 4.03 |  | 1.42 |  |  | 57.79
C=CC(=O)N1CCC[C@@H](n2nc(-c3ccc(Oc4ccccc4)cc3)c3c(N)ncnc32)C1 [ibrutinib] | 6.64 | 25.73 | 9.66 | 1.78 | -9.45 | 7.45 | -1.13 |  | 2.93 | -0.17 | 102.20
